Results taken from article PMC9403976, “Elucidating the path to Plasmodium prolyl-tRNA synthetase inhibitors that overcome halofuginone resistance” (Nature Communications, 2022).
Values joined by “and” are separate entries in the source; they are usually repeats but may differ in a detail not shown here. Identical values can stand only once. Like-named read-outs stand apart in the source and are kept apart here.

Assays:
P. falciparum Dd2-2D4 = assay: P. falciparum asexual blood stage (ABS) growth assay, SYBR Green, 72 h, wild-type parasites; type: cell-based, Plasmodium falciparum; conditions: for ABS growth dose-response, normalized signal (Replicates 1-3): Dd2-2D4; for EC50: Plasmodium falciparum, DD2, SI Fig 16b, values on -log scale, read-out: ABS - Dd2-2D4 (converted)
[1] = tested on: halofuginone-induced P. falciparum (elevated proline homeostasis); assay: P. falciparum ABS growth assay, SYBR Green, 72 h, halofuginone-induced parasites; type: cell-based, Plasmodium falciparum
Excerpt: Parasites were maintained under standard culture conditions as described previously[56],[57]. […] The P. falciparum Dd2 cell lines used in this study (Dd2-2D4, halofuginone-induced, and HFGR-I) have previously undergone whole genome sequencing in our labs. They were also routinely assayed and EC50 values determined using the ABS growth assay (see below) with a panel of standard antimalarial compounds, including halofuginone which has differential activity for the three Dd2 lines used in these experiments. Data were cross-referenced for consistency with literature reported values and data previously acquired in the lab.
This assay was performed as previously described. In short, P. falciparum erythrocytic-stage parasites at 1% parasitemia and 1% hematocrit in RPMI + 0.5% Albumax were seeded at 40 μL/well in 384-well plates with test compounds in triplicate, dose-response format with 10 μM dihydroartemisinin as a kill-control and blank (no compound) wells as a growth-control. […] After 72 h, growth was quantified by measuring fluorescence (Molecular Devices SpectraMax iD5) following SYBR Green 1 staining. Data were analyzed in Excel and plotted in PRISM (V. 8.4.3–9.1.0, GraphPad).

PfcProRS = target: T1, PfcProRS (Plasmodium falciparum, UniProt Q8I5R7); type: binding; conditions: for dose-response signal (normalized), SI Fig 8: single replicates; for Normalized response, dose-response replicates (SI Fig 14): replicates 1-3
T1 construct: made in house; host or cells: E. coli SoluBL-21

HsProRS = HsProRS (Homo sapiens, UniProt P07814); assay: TR-FRET ligand displacement assay with tracer MAT379 (CoraFluor-1-Halo and anti-His6 antibody formats); type: binding; design: made in house; host or cells: E. coli SoluBL-21; conditions: for TR-FRET dose-response, normalized signal (SI Fig 11): individual replicates
Chain of HsProRS (P07814 996-1512): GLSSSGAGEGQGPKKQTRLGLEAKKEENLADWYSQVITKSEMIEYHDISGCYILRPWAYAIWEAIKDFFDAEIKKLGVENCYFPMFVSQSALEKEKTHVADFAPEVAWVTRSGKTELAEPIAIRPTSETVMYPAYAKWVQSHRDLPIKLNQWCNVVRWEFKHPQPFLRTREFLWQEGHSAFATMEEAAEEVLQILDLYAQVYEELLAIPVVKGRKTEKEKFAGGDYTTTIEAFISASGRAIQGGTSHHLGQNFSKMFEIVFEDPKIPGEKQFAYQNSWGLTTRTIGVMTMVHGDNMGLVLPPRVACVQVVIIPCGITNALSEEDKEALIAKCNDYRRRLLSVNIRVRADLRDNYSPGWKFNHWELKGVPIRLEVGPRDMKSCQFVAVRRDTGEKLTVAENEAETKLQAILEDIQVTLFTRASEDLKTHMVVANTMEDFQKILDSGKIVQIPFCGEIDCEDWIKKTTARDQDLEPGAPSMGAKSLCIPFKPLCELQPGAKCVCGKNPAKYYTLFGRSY

T1 sequence (Q8I5R7 249-746): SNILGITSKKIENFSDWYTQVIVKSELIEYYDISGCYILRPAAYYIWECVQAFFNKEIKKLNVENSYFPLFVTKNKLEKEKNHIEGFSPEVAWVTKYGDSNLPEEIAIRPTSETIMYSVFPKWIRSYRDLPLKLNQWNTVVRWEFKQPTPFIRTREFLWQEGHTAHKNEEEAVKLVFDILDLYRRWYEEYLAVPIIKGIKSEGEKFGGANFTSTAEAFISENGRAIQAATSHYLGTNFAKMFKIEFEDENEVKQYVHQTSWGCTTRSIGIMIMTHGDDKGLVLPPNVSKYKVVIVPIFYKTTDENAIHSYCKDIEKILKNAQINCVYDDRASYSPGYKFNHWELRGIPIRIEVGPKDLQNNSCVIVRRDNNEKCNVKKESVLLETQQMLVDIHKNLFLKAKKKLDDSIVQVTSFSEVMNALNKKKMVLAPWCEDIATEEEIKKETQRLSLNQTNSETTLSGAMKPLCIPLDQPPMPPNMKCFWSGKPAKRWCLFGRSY

## O=C(NC1Cc2ccccc2C1)c1nccnc1NC(=O)C1CCC1 [compound 20]
P. falciparum Dd2-2D4; Log[inhibitor] (M) -5.000
  ABS growth dose-response, normalized signal (Replicates 1-3): 1
P. falciparum Dd2-2D4; Log[inhibitor] (M) -5.301
  ABS growth dose-response, normalized signal (Replicates 1-3): 7
P. falciparum Dd2-2D4
  EC50: 3.74 µM
[1]; Log[inhibitor] (M) -8.699
  dose-response value, Replicates 1-3 (SI Fig 2e): 102
[1]; Log[inhibitor] (M) -9.000
  dose-response value, Replicates 1-3 (SI Fig 2e): 101
PfcProRS; Log[inhibitor] (M) -5.000
  dose-response signal (normalized), SI Fig 8: -3.34E-02 and -2.16E-02 and 4.43E-02
PfcProRS; Log[inhibitor] (M) -5.301
  dose-response signal (normalized), SI Fig 8: 9.72E-02 and 2.14E-03 and 9.57E-02
PfcProRS; Log[inhibitor] (M) -5.601
  dose-response signal (normalized), SI Fig 8: 1.29E-01 and 1.68E-01 and 1.72E-01
PfcProRS; Log[inhibitor] (M) -5.904
  dose-response signal (normalized), SI Fig 8: 2.39E-01 and 2.05E-01 and 1.23E-01
PfcProRS; Log[inhibitor] (M) -6.208
  dose-response signal (normalized), SI Fig 8: 3.45E-01 and 2.90E-01 and 4.22E-01
PfcProRS; Log[inhibitor] (M) -6.509
  dose-response signal (normalized), SI Fig 8: 6.21E-01 and 6.16E-01 and 6.02E-01
PfcProRS; Log[inhibitor] (M) -6.796
  dose-response signal (normalized), SI Fig 8: 8.63E-01 and 8.36E-01 and 8.81E-01
PfcProRS; Log[inhibitor] (M) -7.108
  dose-response signal (normalized), SI Fig 8: 1.04E+00 and 9.78E-01 and 9.41E-01
PfcProRS; Log[inhibitor] (M) -7.409
  dose-response signal (normalized), SI Fig 8: 1.10E+00 and 1.00E+00 and 1.03E+00
PfcProRS; Log[inhibitor] (M) -7.710
  dose-response signal (normalized), SI Fig 8: 1.05E+00 and 1.02E+00 (2×)
PfcProRS; Log[inhibitor] (M) -8.000
  dose-response signal (normalized), SI Fig 8: 1.14E+00 and 1.06E+00 and 1.15E+00
PfcProRS; Log[inhibitor] (M) -8.301
  dose-response signal (normalized), SI Fig 8: 1.07E+00 and 1.03E+00 and 9.53E-01
PfcProRS; Log[inhibitor] (M) -8.602
  dose-response signal (normalized), SI Fig 8: 1.04E+00 and 1.07E+00 and 9.70E-01
PfcProRS; Log[inhibitor] (M) -9.000
  dose-response signal (normalized), SI Fig 8: 1.05E+00 and 1.02E+00 and 1.08E+00
PfcProRS; Log[inhibitor] (M) -9.301
  dose-response signal (normalized), SI Fig 8: 1.08E+00 and 9.05E-01 and 9.37E-01
HsProRS; HsProRS (KD [nM]) mean, no added proline/ATP (-)
  Kd: 738 nM
HsProRS; HsProRS - best Kd, SI Fig 16a, values on -log scale
  Kd: 13.2 nM
HsProRS; Log[inhibitor] (M) -5.000
  normalized TR-FRET ligand displacement signal, dose-response replicates (SI Fig 6): 1.86E-01 and 1.74E-01 and 2.39E-01
  TR-FRET dose-response, normalized signal (SI Fig 11): 1.04E-01 and 5.16E-02 and 1.08E-01
HsProRS; Log[inhibitor] (M) -5.301
  normalized TR-FRET ligand displacement signal, dose-response replicates (SI Fig 6): 4.97E-01 and 4.61E-01 and 4.31E-01
  TR-FRET dose-response, normalized signal (SI Fig 11): 1.41E-01 and 1.42E-01 and 1.77E-01
HsProRS; Log[inhibitor] (M) -5.601
  normalized TR-FRET ligand displacement signal, dose-response replicates (SI Fig 6): 6.11E-01 and 7.58E-01 and 7.79E-01
  TR-FRET dose-response, normalized signal (SI Fig 11): 3.04E-01 and 2.78E-01 and 2.50E-01
HsProRS; Log[inhibitor] (M) -5.904
  normalized TR-FRET ligand displacement signal, dose-response replicates (SI Fig 6): 8.89E-01 and 8.92E-01 and 8.45E-01
  TR-FRET dose-response, normalized signal (SI Fig 11): 4.25E-01 and 3.97E-01 and 4.79E-01
HsProRS; Log[inhibitor] (M) -6.208
  normalized TR-FRET ligand displacement signal, dose-response replicates (SI Fig 6): 9.16E-01 and 8.68E-01 and 9.52E-01
  TR-FRET dose-response, normalized signal (SI Fig 11): 6.09E-01 and 5.97E-01 and 5.95E-01
HsProRS; Log[inhibitor] (M) -6.509
  normalized TR-FRET ligand displacement signal, dose-response replicates (SI Fig 6): 1.03E+00 and 8.94E-01 and 8.53E-01
  TR-FRET dose-response, normalized signal (SI Fig 11): 6.97E-01 and 7.43E-01 and 6.91E-01
HsProRS; Log[inhibitor] (M) -6.796
  normalized TR-FRET ligand displacement signal, dose-response replicates (SI Fig 6): 1.03E+00 (2×) and 1.11E+00
  TR-FRET dose-response, normalized signal (SI Fig 11): 8.43E-01 and 8.17E-01 and 8.38E-01
HsProRS; Log[inhibitor] (M) -7.108
  normalized TR-FRET ligand displacement signal, dose-response replicates (SI Fig 6): 9.80E-01 and 1.08E+00 and 1.02E+00
  TR-FRET dose-response, normalized signal (SI Fig 11): 8.72E-01 and 8.51E-01 and 8.01E-01
HsProRS; Log[inhibitor] (M) -7.409
  normalized TR-FRET ligand displacement signal, dose-response replicates (SI Fig 6): 9.83E-01 and 1.12E+00 and 9.82E-01
  TR-FRET dose-response, normalized signal (SI Fig 11): 9.24E-01 and 8.62E-01 and 9.39E-01
HsProRS; Log[inhibitor] (M) -7.710
  normalized TR-FRET ligand displacement signal, dose-response replicates (SI Fig 6): 9.31E-01 and 9.49E-01 and 8.80E-01
  TR-FRET dose-response, normalized signal (SI Fig 11): 9.14E-01 and 9.13E-01 and 9.09E-01
HsProRS; Log[inhibitor] (M) -8.000
  normalized TR-FRET ligand displacement signal, dose-response replicates (SI Fig 6): 1.05E+00 and 9.80E-01 and 9.83E-01
  TR-FRET dose-response, normalized signal (SI Fig 11): 9.16E-01 and 9.29E-01 and 9.47E-01
HsProRS; Log[inhibitor] (M) -8.301
  normalized TR-FRET ligand displacement signal, dose-response replicates (SI Fig 6): 9.29E-01 and 1.08E+00 and 8.52E-01
  TR-FRET dose-response, normalized signal (SI Fig 11): 9.16E-01 and 9.69E-01 and 9.32E-01
HsProRS; Log[inhibitor] (M) -8.602
  normalized TR-FRET ligand displacement signal, dose-response replicates (SI Fig 6): 9.34E-01 and 1.03E+00 and 1.00E+00
  TR-FRET dose-response, normalized signal (SI Fig 11): 9.06E-01 and 9.54E-01 and 9.32E-01
HsProRS; Log[inhibitor] (M) -9.000
  normalized TR-FRET ligand displacement signal, dose-response replicates (SI Fig 6): 1.01E+00 and 9.37E-01 and 8.87E-01
  TR-FRET dose-response, normalized signal (SI Fig 11): 9.11E-01 and 9.90E-01 and 9.12E-01
HsProRS; Log[inhibitor] (M) -9.301
  normalized TR-FRET ligand displacement signal, dose-response replicates (SI Fig 6): 9.68E-01 and 9.96E-01 and 9.12E-01
  TR-FRET dose-response, normalized signal (SI Fig 11): 9.37E-01 and 9.39E-01 and 8.38E-01

## Nc1nccnc1C(=O)NC1CCCCC1 [compound 48]
P. falciparum Dd2-2D4
  EC50: 8.75 µM
PfcProRS; Log[inhibitor] (M) -5.000
  Normalized response, dose-response replicates (SI Fig 14): 7.98E-01 and 9.64E-01 and 8.59E-01
PfcProRS; Log[inhibitor] (M) -5.301
  Normalized response, dose-response replicates (SI Fig 14): 1.00E+00 and 9.90E-01 and 9.60E-01
PfcProRS; Log[inhibitor] (M) -5.601
  Normalized response, dose-response replicates (SI Fig 14): 1.12E+00 and 9.39E-01 and 1.04E+00
PfcProRS; Log[inhibitor] (M) -5.904
  Normalized response, dose-response replicates (SI Fig 14): 1.09E+00 and 1.16E+00 and 9.71E-01
PfcProRS; Log[inhibitor] (M) -6.208
  Normalized response, dose-response replicates (SI Fig 14): 1.14E+00 and 9.41E-01 and 1.00E+00
PfcProRS; Log[inhibitor] (M) -6.509
  Normalized response, dose-response replicates (SI Fig 14): 1.15E+00 and 1.05E+00 and 9.08E-01
PfcProRS; Log[inhibitor] (M) -6.796
  Normalized response, dose-response replicates (SI Fig 14): 9.89E-01 and 9.81E-01 and 1.09E+00
PfcProRS; Log[inhibitor] (M) -7.108
  Normalized response, dose-response replicates (SI Fig 14): 9.93E-01 and 1.12E+00 and 9.45E-01
PfcProRS; Log[inhibitor] (M) -7.409
  Normalized response, dose-response replicates (SI Fig 14): 1.04E+00 and 1.09E+00 and 1.06E+00
PfcProRS; Log[inhibitor] (M) -7.710
  Normalized response, dose-response replicates (SI Fig 14): 1.09E+00 and 9.79E-01 and 1.07E+00
PfcProRS; Log[inhibitor] (M) -8.000
  Normalized response, dose-response replicates (SI Fig 14): 1.09E+00 and 1.00E+00 and 1.03E+00
PfcProRS; Log[inhibitor] (M) -8.301
  Normalized response, dose-response replicates (SI Fig 14): 1.08E+00 and 1.10E+00 and 1.07E+00
PfcProRS; Log[inhibitor] (M) -8.602
  Normalized response, dose-response replicates (SI Fig 14): 1.05E+00 and 1.09E+00 and 1.03E+00
PfcProRS; Log[inhibitor] (M) -9.000
  Normalized response, dose-response replicates (SI Fig 14): 1.01E+00 and 1.14E+00 and 9.74E-01
PfcProRS; Log[inhibitor] (M) -9.301
  Normalized response, dose-response replicates (SI Fig 14): 1.02E+00 and 1.01E+00 and 1.04E+00
HsProRS
  IC50: > 10 µM
HsProRS; + 100 μM proline, 10 μM
  HsProRS % signal at 10 μM, + 100 μM proline: 87.4%
HsProRS; no added proline/ATP (-), 10 μM
  HsProRS % signal at 10 μM: 89.6%
HsProRS; read-out: HsProRS IC50 + 100 μM proline, + 100 μM proline
  IC50: > 10 µM
